Data set [1] deals with A2780 (ovarian) cells.
For data set [2], the system named is HT-29 (colon) cells. Briefly: Antiproliferative activity in vitro. The format is cell-based, human.
For data set [3] the following is noted: for Day of mean BW Nadir / # of TR (treatment related deaths) / Avg. Day of TR: qwkx3 iv.
Description: HRLN female nu/nu mice were set up and dosing solutions were prepared. Body weight was determined biweekly until the end of the study. The endpoint was where mean weight loss exceeded 20% or >10% of animals in a group died, dosing was immediately stopped. Moribund animals were euthanized following PRC SOP. All animals were euthanized 14 days post final dose.
For data set [4] the following is noted: neutral pH.
Data set [5] concerns HT-29 colorectal carcinoma xenografts. Briefly: Efficacy study in subcutaneous HT29 xenograft. Conditions: for Deaths TR (treatment related) / Regressions CR (complete regression) / Regressions PR (partial regression) / Regressions TFS (tumor-free survivor): n=10; for Median TTE (time to endpoint): endpoint 1000 mm^3 or Day 90.
Description: Efficacy was evaluated in nude mice bearing subcutaneously implanted HT-29 colorectal carcinoma xenografts. HRLN female nu/nu mice were set up with 1 mm^3 HT-29 tumor fragments s.c. in the flank. The pair match was then done when the tumors reached an average size of 80 to 120 mg and was followed by beginning treatment. Dosing solutions were prepared daily and body weight was determined bi-weekly until the end of the study. Caliper measurements were taken bi-weekly to the end of the study. Animals were monitored individually, and the endpoint of the experiment was a tumor volume of 1 g or 90 days, whichever came first. […] When the endpoint was reached, the animals were euthanized.
Tubulysin A was administered as a solution in 10% DMSO:1% Tween 80:89% Saline. The vehicle was 10% DMSO:1% Tween 80:89% Saline.
The test system of data set [6] is NCI-H1299 (lung) cells.
For data set [7], the system named is human ovarian carcinoma cell line A2780. Briefly: Cytotoxicity of etoposide derivatives, MTS assay. The format is cell-based. The following applies: A2780, 72 h. As to the method:
The cytotoxicity of drug-polymer conjugates and linker-drug precursors was determined in the human ovarian carcinoma cell line A2780. […] 10,000 cells per well were seeded in a 96-well plate and incubated at 37° C. for 24 hours, at which time drug was added to triplicate wells at various concentrations. After 72 hours of incubation at 37° C. in the presence of drug, cells were washed with PBS, incubated for 1 hour with an MTS solution, and analyzed according to manufacturer's instructions (CellTiter 96 one solution cell proliferation assay, Promega, Madison, Wis.).
On the technique in general: Tetrazolium dyes change colour on reduction, which living cells bring about.

Molecules are shown by their SMILES. ≈ marks a conversion by molar mass, not a printed value. Read-outs that look alike come from different tables or passages of the source.

In the case of `CC[C@H](C)[C@H](NC(=O)[C@H]1CCCCN1C)C(=O)N(COC(=O)CC(C)C)[C@H](C[C@@H](OC(C)=O)c1nc(C(=O)N[C@@H](Cc2ccc(O)cc2)C[C@H](C)C(=O)O)cs1)C(C)C` [Tubulysin A, tubulysin A], the midpoint of inhibition in data set [1], the IC50, lay at 2.4 nM. Besides, in data set [2], half-maximal inhibition (IC50) required 1.3 nM. For the same molecule, the “Day of mean BW Nadir” value in data set [3] (0.05 mg/kg) was 5 days. The “# of TR (treatment related deaths)” value in data set [3] (0.05 mg/kg, n=5) amounted to 0. In data set [3] (0.3 mg/kg), the “Avg. Day of TR” value is reported as 9 and the “Day of mean BW Nadir” value was determined as 8 days. Also, the “# of TR (treatment related deaths)” value in data set [3] (0.3 mg/kg, n=4) came out at 4. For the same molecule, in data set [3] (1 mg/kg), the “Avg. Day of TR” value came to 4 and the “Day of mean BW Nadir” value is 3 days. The “# of TR (treatment related deaths)” value in data set [3] (1 mg/kg, n=4) is recorded as 4. Also, in data set [3] (3 mg/kg), the “Avg. Day of TR” value is listed as 3 and the “Day of mean BW Nadir” value turned out to be 2 days. Further, the “# of TR (treatment related deaths)” value in data set [3] (3 mg/kg, n=4) is given as 4. Moreover, the “maximum tolerated dose (MTD)” value in data set [3] (nude mice, conjugate in Tubulysin equivalents) came out at 0.05 mg/kg. In data set [4], this molecule displayed a solubility in water of 100 µg/mL (≈ 118 µM). In data set [5] (0.1 mg/kg qwkx3 i.v. (Group 2)), the “% TGD” value is 2.42%; the “BW Nadir (%)” value is reported as −26.80%; the “TC (tumor growth delay, T−C)” value stood at 0.81 days; the “Deaths TR (treatment related)” value is reported as 5. Also, in data set [5] (0.1 mg/kg qwkx3 i.v. (Group 2)), the “Regressions CR (complete regression)” value is on record as 0, the “Regressions PR (partial regression)” value was found to be 0, the “Regressions TFS (tumor-free survivor)” value turned out to be 0 and the “Median TTE (time to endpoint)” value is recorded as 34.46. Also, in data set [5] (0.1 mg/kg qwkx3 i.v., HT-29 xenograft mice), the mortality (in general, the percentage killed) was 50%. Besides, in data set [5] (0.1 mg/kg qwkx3 i.v., on day 26), the “maximum body weight loss” value amounted to 26.8%. Further, the “toxicity of the free drug” value in data set [5] (even at 0.1 mg/kg) is recorded as “severely toxic”. For the same molecule, the IC50 (commonly the concentration that inhibits the measured activity by half) in data set [6] was 2.8 nM.
For the molecule `CC[C@]1(O)C[C@@H]2CN(CCc3c([nH]c4ccccc34)[C@@](C(=O)OC)(c3cc4c(cc3OC)N(C)[C@H]3[C@@](O)(C(=O)OC)[C@H](OC(C)=O)[C@]5(CC)C=CCN6CC[C@]43[C@@H]65)C2)C1` [Vinblastine], the “antitumor effectiveness compared to CDP-PEG-SS-Tubulysin” value in data set [5] (4 mg/kg qwkx3 i.v.) is reported as “significantly less effective”. In data set [5] (4 mg/kg qwkx3 i.v. (Group 3)), the “% TGD” value worked out at 33.89%, the “BW Nadir (%)” value is −3.60%, the “Statistical Significance vs G1 (vehicle)” value is “** (** = 0.001< P < 0.01)” and the “Statistical Significance vs G4 (CDP-S-S-TUB qwkx3)” value is reported as “*** (*** = P < 0.001)”. Moreover, in data set [5] (4 mg/kg qwkx3 i.v. (Group 3)), the “TC (tumor growth delay, T−C)” value turned out to be 11.4 days; the “Deaths TR (treatment related)” value was 0; the “Regressions CR (complete regression)” value was determined as 0; the “Regressions PR (partial regression)” value is listed as 0. For the same molecule, in data set [5] (4 mg/kg qwkx3 i.v. (Group 3)), the “Regressions TFS (tumor-free survivor)” value stood at 0 and the “Median TTE (time to endpoint)” value is 45.05.
As for `COc1cc([C@@H]2c3cc4c(cc3[C@@H](O[C@@H]3O[C@@H]5CO[C@@H](C)O[C@H]5[C@H](O)[C@H]3O)[C@H]3COC(=O)[C@H]23)OCO4)cc(OC)c1O` [etoposide], 200 nM corresponded to half-maximal inhibition in data set [7] (IC50).
